From patent US11932604B1, “9-(2-hydroxyphenyl)-10-[3-(dimethylamino)propyl]- 3,4,6,7,9,10-hexahydroacridine-1,8(2H,5H)-dione as an antimicrobial compound” (KING FAISAL UNIVERSITY, priority 2023, dated 2024)

Assays:
Conditions in all cases: after 10, 20, 40 and 60 minutes at all dilutions 1:100 to 1:800
Ps. Aeruginosa = assay: Antimicrobial activity by agar dilution, Ps. Aeruginosa; format: cell-based, Pseudomonas aeruginosa
Experimental: (§1) The antimicrobial properties of the synthesized compound 9-(2-hydroxyphenyl)-10-[3-(dimethylamino)propyl]-3,4,6,7,9,10-hexahydroacridine-1,8(2H,5H)-dione were studied by the method of agar dilution. Test solutions of each compound were prepared in a concentration of 1% using dimethylformamide as a solvent. Then they were diluted in a physiological solution to obtain the final experimental dilutions 1:100, 1:200, 1:400, and 1:800. The effect of these substances were compared with furacillin in a controllable study. The testing microbes used were gram positive bacteria St. Aereus, gram negative bacteria E. Coli and Ps. Aeruginosa, and Candida albicans fungi. The experiments used for this survey were meat-pentonlu agar (EPA) for cultivation of bacteria and Saburo environment for fungi. Each experiment used 1 ml of test solution on each plate 500 min. Add 2 drops of emulsified with microbes feel. All experimental samples were taken from the agar after 10, 20, 40, 60 minutes in the environment on the basis of Patrk planted. Bacteria were cultivated at a temperature of 37° C. for 1 day and the mushroom was kept in a thermostat for […] at a temperature of 28° C. Then the results were checked.

St. Aereus = assay: Antimicrobial activity by agar dilution, St. Aereus; format: cell-based, Staphylococcus aureus
Experimental: as §1

Candida albicans = assay: Antimicrobial activity by agar dilution, Candida albicans; format: cell-based
Experimental: as §1

E. Coli = assay: Antimicrobial activity by agar dilution, E. Coli; format: cell-based, Escherichia coli
Experimental: as §1

CN(C)CCCN1C2=C(C(=O)CCC2)C(c2ccccc2O)C2=C1CCCC2=O [9-(2-hydroxyphenyl)-10-[3-(dimethylamino)propyl]-3,4,6,7,9,10-hexahydroacridine-1,8(2H,5H)-dione]
highest inhibition activity: inhibition activity, Ps. Aeruginosa (Ps. Aeruginosa) | inhibition activity, St. Aereus (St. Aereus) | inhibition activity, Candida albicans (Candida albicans) | inhibition activity, E. Coli (E. Coli)
